Patent publication US20040234962A1, “Multicoated or multilayer entrapment matrix for protein biosensor” (priority 2003, published 2004)

Assay: Fluorescence intensity of NBD-GGBP-CMC in presence and absence of glucose
Assay type: biochemical
Details: 100 nM preparation, 20 mM glucose; FIG. 6
Method: Covalent attachment was performed by activating carboxymethyl groups on the hydrogel polymer (CMC) with a mixture of N-hydroxysuccinimide (NHS) and N-ethyl-N′-(dimethylaminopropyl) carbodiimide (EDC). This forms an intermediate that is reactive to amines. NHS (100 mM) and EDC (400 mM) in water were mixed in a 1:1 vol:vol ratio. An equal volume of hydrogel polymer (25 mg/mL CMC in H2O) and the EDC/NHS mixture were combined, and incubated at room temperature for 15 to 30 minutes. The unreacted EDC and NHS were removed from the hydrogel polymer by eluting the polymer from a NAP-5 column. Varying amounts of activated hydrogel polymer were combined with the fluorescently-labeled GGBP (in this example, the NBD-A213C/L238C-GGBP-His6 mutant). The activated hydrogel polymer and protein were gently mixed, at room temperature, for 1 to 2 hours. […] An absorbance scan of solution not retained by the 100 kDa filter indicated no unattached protein remained. […] Activity of the NBD-GGBP-CMC was determined by fluorescence intensity measurement of the NBD-GGBP-CMC in the presence of high concentration glucose (20 mM) and in the absence of glucose. Thus, 100 nM preparations of the NBD-GGBP-CMC, as well as unattached NBD-GGBP (control) were measured before and after the addition of glucose (FIG. 6). […]

NBD-GGBP-CMC: NBD-labeled GGBP randomly covalently attached to carboxymethyl cellulose hydrogel polymer via EDC/NHS
signal in the presence of glucose compared to the absence of glucose: strong signal
